Patent US20040116451A1, “Method of treatment” (Pfizer Inc., priority 2002, published 2004)

Test system: men with lower urinary tract symptoms
Assay: 12-Week double-blind study in men with lower urinary tract symptoms (IPSS and bladder diary)
Type: in vivo
Conditions: for improvement in IPSS irritative domain: subjects with baseline IPSS irritative domain score ≧β; for improvement in IPSS irritative domain / improvement in irritative LUTS (urgency, daytime micturition frequency, nocturia; bladder diary): controlled release formulation, 12 weeks; for improvement in irritative LUTS (urgency, daytime micturition frequency, nocturia; bladder diary): subjects with irritative LUTS at baseline, compared with placebo
Description: A 12-Week Study in men with lower urinary tract symptoms was undertaken in which the IPSS (International Prostate Symptom Score) was recorded at baseline during, and at the end of, double-blind treatment. The IPSS is composed of seven questions, each with potential responses of 0-5 on a Likert scale. These questions are grouped into two validated domains: the irritative domain (urgency, frequency and nocturia) and the obstructive domain (incomplete emptying, intermittency, weak stream and straining to begin). […] The average daily incidence of urgency, daytime micturition frequency and nocturia (the irritative symptoms) for each subject were derived from this diary. In this study, there were […] treatment groups: 6 mg fixed dose of 4-amino-6,7-dimethoxy-2-(5-methanesulfonamido-1,2,3,4-tetrahydroisoquinol-2-yl)-5-(2-pyridyl)quinazoline, 6 mg escalated to 12 mg at Week 4 of the compound, and placebo. Controlled release formulations according to International Application Publication No. WO 03/032956 were used in each case.

[1] = 12 mg dose escalation group (6 mg escalated to 12 mg at Week 4)

## COc1cc2nc(N3CCc4c(cccc4NS(C)(=O)=O)C3)nc(N)c2c(-c2ccccn2)c1OC [4-amino-6,7-dimethoxy-2-(5-methanesulfonamido-1,2,3,4-tetrahydroisoquinol-2-yl)-5-(2-pyridyl)quinazoline]
12-week study in men with LUTS, controlled release formulations
  attenuation of irritative LUTS (overall study result, FIGS. 1 to 4): clinically significant attenuation of irritative LUTS
6 mg fixed dose group
  improvement in IPSS irritative domain: improvement in this domain of the IPSS was similarly confirmed
  improvement in irritative LUTS (urgency, daytime micturition frequency, nocturia; bladder diary): improvement in these symptoms was confirmed
[1]
  improvement in IPSS irritative domain: improvement in this domain of the IPSS was similarly confirmed
  improvement in irritative LUTS (urgency, daytime micturition frequency, nocturia; bladder diary): improvement in these symptoms was confirmed
